These are literature values, as cited in patent publication US20080138440A1, “Methods of diagnosing and alleviating gadolinium toxicity” (priority 2006, published 2008).

The conditions of the series: high doses; cited from earlier work.

For the compound `CNC[C@H](O)[C@@H](O)[C@H](O)[C@H](O)CO.CNC[C@H](O)[C@@H](O)[C@H](O)[C@H](O)CO.O=C([O-])CN(CCN(CC(=O)[O-])CC(=O)O)CCN(CC(=O)[O-])CC(=O)O.[Gd+3]` [gadopentetate dimeglumine injection, gadopentetate dimeglumine], the arrhythmias result is reported as “Arrhythmias have been noted”.
